US11932595B2, “VDR-silent vitamin D derivative as inhibitors of SREBP and pharmaceutical use thereof” (KYOTO UNIVERSITY, priority 2020, dated 2024)

Assays:
SREBP = SREBP luciferase reporter assay (pSRE-Luc) in CHO-K1 cells; type: cell-based; settings: for SREBP inhibitory activity (expression of SREBP-responsive luciferase reporter gene): CHO-K1 cells, 5 μM compound, lipid-free medium, 24 h, FIGS. 1 and 3
Method: (§1) Cell Culture: CHO-K1 cells were maintained in medium A (1:1 mixture of Ham's F-12 medium and DMEM, supplemented with 100 units/mL penicillin, 100 μg/mL streptomycin sulfate, and 5% [v/v] fetal bovine serum) at 37° C. in a humidified 5% CO2 incubator.
(§2) CHO-K1 cells were seeded into 96-well plates at 8×10^3 cells per well in medium A and incubated for 24 h. For SREBP reporter assay, cells were co-transfected with an SRE-1-driven luciferase reporter plasmid (pSRE-Luc) and an actin promoter-driven β-galactosidase expression plasmid (pAc-13-gal) at a 20:1 ratio, using FuGENE HD Transfection Reagent (Promega) according to the manufacturer's protocol.
(§3) After 20 h, the medium was changed to medium B (1:1 mixture of Ham's F-12 medium and DMEM, supplemented with 100 units/mL penicillin, 100 μg/mL streptomycin sulfate, 5% [v/v] lipid-depleted serum, 50 μM compactin (Tokyo Chemical Industry), and 50 μM lithium mevalonate (Sigma-Aldrich) containing the specific test compounds. After 24 h incubation, the cells in each well were lysed with 100 μL of 1× Reporter Lysis Buffer (Promega), and 50 μL of aliquots were used to measure luciferase and 13-gal activities. Luciferase activity was measured using the Steady-Glo Luciferase Assay System (Promega), and 13-gal activity was measured using the 13-Galactosidase Enzyme Assay System (Promega). Luciferase activity was normalized to 13-gal activity.
[…] The same experiment using of 25(OH)D3 (1) was performed as control. Values are mean±SD.

[1] = Maynard et al. J Med. Chem. 1994; cited from earlier work
SREBP/SCAP = settings: Nagata, ACS Chem. Biol. 2019; cited from earlier work
[2] = cited from earlier work
VDR = VDR reporter assay (Cignal Vitamin D Receptor Reporter) in CHO-K1 cells; type: cell-based; settings: 5 μM compound, lipid-free medium, FIGS. 2 and 4
Method: as §1, §2
For VDR reporter assay, Cignal Vitamin D Receptor Reporter (QIAGEN) was transfected instead of pSRE-Luc.
as §3
For the VDR assay, CHO-K1 cells were treated with 5 μM of the compounds in a lipid-free medium. The same experiment using 25(OH)D3 (1) was performed as control. Values are mean±SD.

SREBP-responsive genes = assay: Short-term in vivo model (fasting/refeeding): hepatic mRNA of SREBP-responsive genes by real-time PCR; parameters: species or system mice; settings: for hepatic expression of SREBP-response genes ACC1 and FASN versus vehicle: 10 mg/kg intraperitoneally once every 24 hours, fasted 48 h/refed 48 h, n=3, FIG. 5C
Method: (§4) To quickly and simultaneously examine their SREBP inhibitory activity and VDR-derived calcemic activity in vivo, a short-term in vivo screening system of mice was established. With reference to the previous report (Horton, J. D. et al. Proc. Natl. Acad. Sci. U.S.A. 1998, 95, 5987-5992.), mice were fasted for 48 hours then refed a special diet (low fat, high carbohydrate diet, lacking in vitamin D) for 48 hours before sacrifice.
(§5) C57BL/6 and oh/oh mice were purchased from CLEA Japan and Charles River Japan, Inc., respectively. Animal experiments were carried out at the University of Tokyo and Charles River Laboratories. Low fat, high carbohydrate diet, lacking vitamin D was custom made by Research Diets, Inc. Compounds disclosed herein and 25(OH)D3 were dissolved in ethanol/Tween 20 (9:1) to obtain stock solution and then diluted 10-fold with PBS immediately before administration to mice.
(§6) 10 mg/kg compounds or vehicle control were administered intraperitoneally once every 24 hours during the fasting and refeeding.
Relative mRNA levels of SREBP-responsive genes were determined by real-time PCR in the livers obtained from the mice with free access to a normal diet or fasted and refed a special diet (means SEM, n=3 per group), *p<0.05.
Expression levels of SREBP-responsive genes were determined by real-time PCR in the livers obtained from the mice treated with indicated compounds (10 mg/kg) according to the protocol illustrated in FIG. 5A. Data are expressed as relative expression to the mean value of vehicle-treated mouse liver (means±SEM, n=3 per group), *p<0.05 (FIG. 5C).
Relative mRNA levels of SREBP-responsive genes were determined by real-time PCR in the livers obtained from the indicated mice Data are means±SEM (fed mice, n=3; others, n=6), *p<0.05 (FIG. 5E).

[3] = Short-term in vivo model: serum calcium levels; parameters: species or system mice; settings: 10 mg/kg intraperitoneally, after 4 days, n=3, FIG. 5D
Method: as §4, §5, §6
Following sacrifice, mouse livers were fixed in 10% neutral-buffered formalin, embedded in paraffin, sectioned, and stained with H&E. Hepatic lipids were extracted with chloroform/methanol (2:1 v/v), and TG and cholesterol contents were measured with Triglyceride Reagent Set (Pointe Scientific) and Cholesterol E (Wako), respectively. Serum levels of ALT, TG, glucose, cholesterol, and calcium were measured in SRL Inc. (Tokyo). All experiments were approved by the Ethics Committee for Animal Experimentation of the University of Tokyo and Charles River Laboratories Japan, and were conducted in accordance with the Guidelines for the Care and Use of Laboratory Animals.
Serum calcium levels in the mice treated with vehicle, compounds, or 25(OH)D3 were determined (means±SEM, n=3 per group), *p<0.05 (FIG. 5D).

SMILES	SREBP inhibitory activity (expression of SREBP-responsive luciferase reporter gene) (SREBP)	VDR activity (VDR reporter activation) (VDR)	further results
CC1=C(/C=C\C2=CCC[C@@]3(C)[C@@H]2CC[C@@H]3[C@H](C)CCCC(C)(C)O)C[C@@H](O)C[C@@H]1O [14-epi-25(OH) D3, reference compound]	–	–	expression of an SREBP-responsive luciferase reporter (SREBP; screening of in-house collection, data not shown): comparable level to 25(OH)D3; calcemic action [1]: markedly decreased calcemic action
Cc1ccc(S(=O)(=O)N[C@@H]2C/C(=C/C=C3\CCC[C@]4(C)[C@@H]([C@H](C)CCCC(O)(C(F)(F)F)C(F)(F)F)CC[C@@H]34)C[C@@H](F)C2)cc1 [Compound 3]	–	–	effect on SREBP/SCAP and VDR activity in cultured cells (SREBP/SCAP): selectively impaired SREBP/SCAP without eliciting VDR activity; calcemic activity in vivo ([2]; high doses): residual calcemic activity; bioavailability ([2]; in vivo): low
C[C@H](CCCC(C)(C)O)[C@H]1CC[C@H]2/C(=C/C(=O)N3CCCCC3)CCC[C@]12C [Compound 19, 2-{(1R,3 aS,7 aR,E)-1-[(R)-6-Hydroxy-6-methylheptan-2-yl]-7a-methyloctahydro-4H-inden-4-ylidene}-1-(piperidin-1-yl)ethan-1-one]	little effect	–	–
C[C@H](CCCC(C)(C)O)[C@H]1CC[C@H]2/C(=C/C(=O)N3CCOCC3)CCC[C@]12C [Compound 20, 2-{(1R,3aS,7aR,E)-1-[(R)-6-Hydroxy-6-methylheptan-2-yl]-7a-methyloctahydro-4H-inden-4-ylidene}-1-morpholinoethan-1-one]	little effect	–	–
C[C@H](CCCC(C)(C)O)[C@H]1CC[C@H]2/C(=C/Cn3cnnn3)CCC[C@]12C [Compound 21, (R)-6-{(1R,3aS,7aR,E)-4-[2-(1H-Tetrazol-1-yl)ethylidene]-7a-methyloctahydro-1H-inden-1-yl}-2-methylheptan-2-ol]	–	detectable VDR activity	–
C[C@H](CCCC(C)(C)O)[C@H]1CC[C@H]2/C(=C/Cn3ncnn3)CCC[C@]12C [Compound 22]	–	detectable VDR activity	–
C[C@H](CCCC(C)(C)O)[C@H]1CC[C@H]2/C(=C/Cn3cc(-c4ccccn4)nn3)CCC[C@]12C [Compound 26, (R)-2-Methyl-6-[(1R,3aS,7aR,E)-7a-methyl-4-{2-[4-(pyridin-2-yl)-1H-1,2,3-triazol-1-yl]ethylidene}octahydro-1H-inden-1-yl]heptan-2-ol]	–	detectable VDR activity	–
C[C@H](CCCC(C)(C)O)[C@H]1CC[C@H]2/C(=C/Cn3cc(CCCCO)nn3)CCC[C@]12C [Compound 29, 6-[(1R,3aS,7aR,E)-4-{2-[4-(4-Hydroxybutyl)-1H-1,2,3-triazol-1-yl]ethylidene}-7a-methyloctahydro-1H-inden-1-yl]-2-methylheptan-2-ol]	–	detectable VDR activity	–
C[C@H](CCCC(O)(C(F)(F)F)C(F)(F)F)[C@H]1CC[C@H]2/C(=C/Cn3cc(-c4ccccc4)nn3)CCC[C@]12C [Compound 38, (R)-1,1,1-Trifluoro-6-{(1R,3aS,7aR,E)-7a-methyl-4-[2-(4-phenyl-1H-1,2,3-triazol-1-yl)ethylidene]octahydro-1H-inden-1-yl}-2-(trifluoromethyl)heptan-2-ol]	–	–	hepatic expression of SREBP-response genes ACC1 and FASN versus vehicle (SREBP-responsive genes): significantly suppressed; serum calcium levels [3]: elevated levels of serum calcium
C[C@H](CCCC(O)(C(F)(F)F)C(F)(F)F)[C@H]1CC[C@H]2/C(=C/Cn3cc(-c4ccc(F)cc4)nn3)CCC[C@]12C [Compound 39, (R)-1,1,1-Trifluoro-6-[(1R,3aS,7aR,E)-4-{2-[4-(4-fluorophenyl)-1H-1,2,3-triazol-1-yl]ethylidene}-7a-methyloctahydro-1H-inden-1-yl]-2-(trifluoromethyl)heptan-2-ol]	maintained SREBP inhibitory activities	lacked in VDR activity	hepatic expression of SREBP-response genes ACC1 and FASN versus vehicle (SREBP-responsive genes): significantly suppressed; serum calcium levels [3]: elevated levels of serum calcium
C[C@H](CCC(F)(F)C(C)(C)O)[C@H]1CC[C@H]2/C(=C/Cn3cc(-c4ccc(F)cc4)nn3)CCC[C@]12C [Compound 47, (R)-3,3-Difluoro-6-[(1R,3aS,7aR,E)-4-{2-[4-(4-fluorophenyl)-1H-1,2,3-triazol-1-yl]ethylidene}-7a-methyloctahydro-1H-inden-1-yl]-2-methylheptan-2-ol]	maintained SREBP inhibitory activities	lacked in VDR activity	–
C[C@H](CCC(F)(F)C(C)(C)O)[C@H]1CC[C@H]2/C(=C/Cn3nnc(-c4ccc(F)cc4)n3)CCC[C@]12C [Compound 49, 3,3-Difluoro-6-[(1R,3aS,7aR,E)-4-{2-[5-(4-fluorophenyl)-2H-tetrazol-2-yl]ethylidene}-7a-methyloctahydro-1H-inden-1-yl]-2-methylheptan-2-ol]	maintained SREBP inhibitory activities	lacked in VDR activity	hepatic expression of SREBP-response genes ACC1 and FASN versus vehicle (SREBP-responsive genes): significantly suppressed; elevated hepatic expression of the three SREBP-responsive genes ACC1, FASN and SCD1 (SREBP-responsive genes; 10 mg/kg intraperitoneally, fasting/refeeding, FIG. 5C): mitigated the elevated expression; serum calcium levels [3]: no detectable increase
C[C@H](CCC(F)(F)C(C)(C)O)[C@H]1CC[C@H]2/C(=C/Cn3nnnc3-c3ccc(F)cc3)CCC[C@]12C [Compound 51, (R)-3,3-Difluoro-6-[(1R,3aS,7aR,E)-4-{2-[5-(4-fluorophenyl)-1H-tetrazol-1-yl]ethylidene}-7a-methyloctahydro-H-inden-1-yl]-2-methylheptan-2-ol]	maintained SREBP inhibitory activities	lacked in VDR activity	–
